Experimental data published in US6649644B1, “Method of treating HIV infection by combined use of a cytotoxic agent and a non-nucleoside reverse transcriptase inhibitor” (priority 1998, dated 2003).
Where two headings read alike, the source gives them in different places.

Key:
[1] = test system: human T-lymphocytes (MT-2) infected with HIV-1; test: Toxicity of compounds for HIV-1-infected MT-2 cells (MTT assay); details: for killing of infected cells relative to uninfected lymphocytes: after 24 hours, losoxantrone 10 nM, etoposide 100 nM
From the text: (§1) In order to test whether some external death stimuli, which are independent of bcl-2 (Reed, 1994), may not selectively kill HIV-infected cells, we exposed uninfected and HIV-infected cells to various chemical toxins, including losoxantrone, bisnafide, etoposide and hydroxyurea. […] Therefore, we proceeded to examine whether either losoxantrone or etoposide were able to selectively kill HIV-infected cells.
The concentration of the cytotoxic drugs losoxantrone, etoposide or hydroxyurea required to reduce cell viability by 50% (TC50) was determined with or without virus infection. Graded concentrations of drug in RPMI (5% FCS) were added to a 96-well microtiter plate. 1×10^e5 cells were added per well. Cell control wells contained cells in RPMI only. […] The tetrazolium dye (3-4,5-dimethylthiazol-2yl)-2,5-diphenyltetrazolium bromide (MTT) was used to assess the number of viable cells. […] Following a 2 hour incubation at 37° C., 150 μL was removed from each well and 200 μL of 0.04 N HCl in isopropanol was added. The contents of each well were mixed and the quantity of reduced dye was measured by absorbance at 570 nm. The concentration of compound producing a 50% reduction in signal relative to the untreated cultures (TC50) was determined.

[2] = test system: HIV-1 (RF strain); type: cell-based; details: for Infectious Centers (Day 8), p24: single agent, PBMCs washed, co-cultivated with MT-2, Table 2
[3] = test system: human T-lymphocytes (MT-2); test: Toxicity of compounds for uninfected MT-2 cells (MTT assay)
From the text: as §1
(§2) The concentration of the cytotoxic drugs losoxantrone, etoposide or hydroxyurea required to reduce cell viability by 50% (TC50) was determined with or without virus infection. Graded concentrations of drug in RPMI (5% FCS) were added to a 96-well microtiter plate. 1×10^e5 cells were added per well. Cell control wells contained cells in RPMI only. Plates were incubated at 37° C., 5% CO2 for 3 days. The tetrazolium dye (3-4,5-dimethylthiazol-2yl)-2,5-diphenyltetrazolium bromide (MTT) was used to assess the number of viable cells. After the 3-day incubation period, 10 μL of MTT (5 mg/mL in 1×PBS) was added to each well. Following a 2 hour incubation at 37° C., 150 μL was removed from each well and 200 μL of 0.04 N HCl in isopropanol was added. The contents of each well were mixed and the quantity of reduced dye was measured by absorbance at 570 nm. The concentration of compound producing a 50% reduction in signal relative to the untreated cultures (TC50) was determined.

[4] = as above; details: human
From the text: as §1, §2

[5] = test system: HIV-1 (RF strain); type: cell-based; details: for HIV Replication (Day 4), p24: single agent, human PBMCs, Table 2; for changes in the level of HIV p24 after either 4 or 8 days: single agents at the concentrations of Table 2
Procedure: Freshly isolated human blood lymphocytes and monocytes were infected with HIV-1 (RF strain) and then incubated for an additional 3 days in the presence of compounds alone or in combinations or left untreated. At the end of 4 days, the infected cells were briefly centrifuged. The supernatant was collected and used to titer HIV p24, using an enzyme-linked immunosorbent assay (ELISA). The cell pellets were washed two times with medium lacking any inhibitors, and the washed human peripheral blood mononuclear cells (PBMCs) were mixed 1:1 with MT-2 lymphocytes and incubated for an additional 4 days absent any inhibitors. All cells were then removed by centrifugation and the supernatant was again assayed for p24 levels by ELISA.
Viral p24 produced by HIV-1 (RF) infected cells was quantified to determine the effects of a cytotoxic drug and efavirenz alone or in combination. On day one, 5.25×10^e6 donor PBMCs (stimulated by PHA/IL-2 for 72 hours in RPMI tissue culture medium were centrifuged at 1,000 rpm for 10 minutes and the supernatant fluid was decanted. Using 50% tissue culture infectious dose (TCID50) estimated from the viral stock titration procedure (PRR 97-04), 5.25×10^6 PBMCs were infected with 5.2×10^3 TCID50 of virus (M. O. I. ˜0.001). Cells were resuspended, the virus stock added, and incubated at 37° C. for one hour. RPMI was added to the infected PBMCs and unabsorbed virus in the supernatant fluid was removed following centrifugation. The cells were resuspended in 10 mL RPMI (20% FCS, 30 units IL-2/mL) and placed in a 25 cm^2 tissue culture flask. The virus control flask contained infected cells only. Similar flasks contained efavirenz or the cytotoxic drug added separately or in combination. Flasks were incubated at 37° C., in 5% CO2 for 3 days. On day 4, the contents of each flask were centrifuged and the supernatant, inactivated with 0.5% Triton X-100, was frozen at −70° C. for p24 analysis. The infected PBMCs were resuspended in RPMI, centrifuged again, and the supernatant discarded to remove residual drugs. The pellets were resuspended in each flask, and 1×10^e6 MT-2 cells were added. The final volume was 10 mL RPMI (5% FCS) per flask. After 4 more days of incubation (day 8), supernatant from each flask was inactivated with Triton X-100 and frozen at −70° C. The p24 antigen concentration of viral supernatants from days 4 and 8 was determined using the NEN Life Science Products HIV-1 p24 antigen capture assay.

[6] = test system: PBMC; test: Inhibition of PBMC cell division; type: cell-based, human; details: 100 μM
[7] = Homo sapiens, T-lymphocyte, read-out: Viable Cells (% Remaining) +HIV

Row | Structure (SMILES) | viability at 0.01 µM [1, 7] [%] | killing of infected cells relative to uninfected lymphocytes [1] [fold] | Infectious Centers (Day 8), p24 ([2]; 10 nM) [pg/mL] | HIV Replication (Day 4), p24 ([5]; 10 nM) [pg/mL] | changes in the level of HIV p24 after either 4 or 8 days [5] | further results
1 | O=C1c2c(O)cccc2-c2nn(CCNCCO)c3ccc(NCCNCCO)c1c23 [losoxantrone] | 4 | 5 | 700000 | 200000 | only small changes | range of concentrations that show selectivity for infected cells ([1]; cell survival, infected vs. control cells): 0.1 to 10 nM; concentration with evidence of substantial toxicity to uninfected cells [3]: ≥ 10 nM; viability at 24 h, 0.01 µM [4]: 68%; increase in p24 titers ([5]; 10 nM, days 4 and 8): 3 to 7 fold
2 | NC(=O)NO [hydroxyurea] | – | – | – | – | – | inhibition of PBMC cell division [6]: 3 fold
3 | Nc1cccc(CN2C(=O)N(Cc3cccc(N)c3)[C@H](Cc3ccccc3)[C@H](O)[C@@H](O)[C@H]2Cc2ccccc2)c1 [Compound E, [4R-(4α, 5α, 6β, 7β]-1,3-bis (3-aminophenylmethyl]hexahydro-5,6-dihydroxy-4,7-bis (phenlymethyl-2H-1,3-diazepin-2-one dimethylsulfonate] | – | – | – | – | only small changes | Infectious Centers (Day 8), p24 ([2]; 100 nM): 350000 pg/mL; HIV Replication (Day 4), p24 ([5]; 100 nM): 25000 pg/mL
4 | COc1cc([C@@H]2c3cc4c(cc3[C@@H](O[C@@H]3O[C@@H]5CO[C@@H](C)O[C@H]5[C@H](O)[C@H]3O)[C@H]3COC(=O)[C@H]23)OCO4)cc(OC)c1O [etoposide] | – | 6 | – | – | – | viability at 0.1 µM [1, 7]: 12%; p24 results when substituted for losoxantrone ([2]; compared with the losoxantrone results, not shown): very similar; viability at 24 h, 0.1 µM [4]: 71%
5 | O=C1Nc2ccc(Cl)cc2[C@@](C#CC2CC2)(C(F)(F)F)O1 [efavirenz] | 82 | – | 200000 | 15000 | only small changes | viability at 24 h, 0.01 µM ([4]; uninfected MT-2 T-lymphocytes): 81%
